From ChEMBL document CHEMBL4680314, “Discovery of potent glycogen synthase kinase 3/cholinesterase inhibitors with neuroprotection as potential therapeutic agent for Alzheimer's disease” (Bioorg Med Chem, 2021)

System: not listed separately
Assay: AUC (0 to 24 hrs) in Sprague-Dawley rat at 10 mg/kg, iv measured upto 24 hrs by LC-MS/MS analysis
Type: ADME, organism-based
Design: route intravenous, dose 10 mg/kg, time <=24
Conditions: in vivo
With `NC(=O)c1sc(-c2ccnc(NC(=O)C3CC3)c2)nc1OCC1CCN(Cc2ccccc2)CC1` the AUC(0-t) was 1540 ng·h/mL.

Molecular target: Acetylcholinesterase (Homo sapiens, UniProt P22303)
Sequence (P22303 whole entry): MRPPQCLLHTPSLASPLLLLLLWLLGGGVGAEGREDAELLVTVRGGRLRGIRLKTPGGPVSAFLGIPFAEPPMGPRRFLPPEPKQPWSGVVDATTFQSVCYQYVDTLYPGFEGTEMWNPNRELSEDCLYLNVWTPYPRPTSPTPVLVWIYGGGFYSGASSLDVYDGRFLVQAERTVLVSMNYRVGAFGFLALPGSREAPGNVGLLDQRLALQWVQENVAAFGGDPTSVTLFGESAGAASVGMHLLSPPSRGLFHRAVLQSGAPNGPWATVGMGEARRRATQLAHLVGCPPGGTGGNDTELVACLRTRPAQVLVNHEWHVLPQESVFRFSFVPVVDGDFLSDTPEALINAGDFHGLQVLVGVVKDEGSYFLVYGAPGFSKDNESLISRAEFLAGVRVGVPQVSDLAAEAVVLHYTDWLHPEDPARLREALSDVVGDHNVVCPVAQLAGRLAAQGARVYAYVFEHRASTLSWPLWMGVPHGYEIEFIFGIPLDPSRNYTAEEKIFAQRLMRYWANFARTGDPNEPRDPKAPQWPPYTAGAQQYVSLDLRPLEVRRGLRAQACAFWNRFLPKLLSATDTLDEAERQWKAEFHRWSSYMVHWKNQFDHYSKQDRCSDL
Assay: Inhibition of human recombinant AChE expressed in HEK293 cells using acetylthiocholine iodide as substrate incubated for 10 mins by Ellman's method
Type: cell-based
Conditions: not given
Compound `NC(=O)c1sc(-c2ccnc(NC(=O)C3CC3)c2)nc1OCC1CCN(Cc2ccccc2)CC1` has an IC50 of 1500 nM.

System: not listed separately
Assay: Clearance in Sprague-Dawley rat at 10 mg/kg, po measured upto 24 hrs by LC-MS/MS analysis
Type: ADME, organism-based
Conditions: in vivo
Compound `NC(=O)c1sc(-c2ccnc(NC(=O)C3CC3)c2)nc1OCC1CCN(Cc2ccccc2)CC1` has a CL/F of 267 mL/min/kg.

System: not listed separately
Assay: Tmax in Sprague-Dawley rat at 10 mg/kg, po measured upto 24 hrs by LC-MS/MS analysis
Type: ADME, organism-based
Conditions: in vivo
In the case of `NC(=O)c1sc(-c2ccnc(NC(=O)C3CC3)c2)nc1OCC1CCN(Cc2ccccc2)CC1`, the Tmax is reported as 4.5 h.

System: not listed separately
Assay: MRT (0 to t) in Sprague-Dawley rat at 10 mg/kg, po measured upto 24 hrs by LC-MS/MS analysis
Type: ADME, organism-based
Conditions: in vivo
`NC(=O)c1sc(-c2ccnc(NC(=O)C3CC3)c2)nc1OCC1CCN(Cc2ccccc2)CC1` gave an MRT last at 24 h of 8.1 h.

System: not listed separately
Assay: Volume of distribution in Sprague-Dawley rat at 10 mg/kg, iv measured upto 24 hrs by LC-MS/MS analysis
Type: ADME, organism-based
Conditions: in vivo
With `NC(=O)c1sc(-c2ccnc(NC(=O)C3CC3)c2)nc1OCC1CCN(Cc2ccccc2)CC1` the Vd was 55.2 L/kg.

System: not listed separately
Assay: Clearance in Sprague-Dawley rat at 10 mg/kg, iv measured upto 24 hrs by LC-MS/MS analysis
Type: ADME, organism-based
Conditions: in vivo
For `NC(=O)c1sc(-c2ccnc(NC(=O)C3CC3)c2)nc1OCC1CCN(Cc2ccccc2)CC1`, the clearance was 104 mL/min/kg.

System: not listed separately
Assay: Half life in Sprague-Dawley rat at 10 mg/kg, po measured upto 24 hrs by LC-MS/MS analysis
Type: ADME, organism-based
Conditions: in vivo
`NC(=O)c1sc(-c2ccnc(NC(=O)C3CC3)c2)nc1OCC1CCN(Cc2ccccc2)CC1` gave a half-life of 4.5 h.

System: not listed separately
Assay: in vitro
Conditions: PAMPA
Description: Effective permeability of compound in PBS/EtOH buffer (7:3) at 25 ug/ml incubated for 18 hrs by PAMPA-BBB assay
Compound `NC(=O)c1sc(-c2ccnc(NC(=O)C3CC3)c2)nc1OCC1CCN(Cc2ccccc2)CC1` has a Papp at 18 h, 25 ug/ml of 6.4 ×10⁻⁶ cm/s.

System: not listed separately
Assay: AUC (0 to 24 hrs) in Sprague-Dawley rat at 10 mg/kg, po measured upto 24 hrs by LC-MS/MS analysis
Type: ADME, organism-based
Design: route oral, dose 10 mg/kg, time <=24
Conditions: in vivo
Compound `NC(=O)c1sc(-c2ccnc(NC(=O)C3CC3)c2)nc1OCC1CCN(Cc2ccccc2)CC1` has an AUC(0-t) of 622 ng·h/mL.

System: not listed separately
Assay: Oral bioavailability in Sprague-Dawley rat at 10 mg/kg measured upto 24 hrs by LC-MS/MS analysis
Type: ADME, organism-based
Conditions: in vivo
`NC(=O)c1sc(-c2ccnc(NC(=O)C3CC3)c2)nc1OCC1CCN(Cc2ccccc2)CC1` gave a bioavailability of 40.7%.

Molecular target: Cholinesterase (Homo sapiens, UniProt P06276)
Sequence (P06276 whole entry): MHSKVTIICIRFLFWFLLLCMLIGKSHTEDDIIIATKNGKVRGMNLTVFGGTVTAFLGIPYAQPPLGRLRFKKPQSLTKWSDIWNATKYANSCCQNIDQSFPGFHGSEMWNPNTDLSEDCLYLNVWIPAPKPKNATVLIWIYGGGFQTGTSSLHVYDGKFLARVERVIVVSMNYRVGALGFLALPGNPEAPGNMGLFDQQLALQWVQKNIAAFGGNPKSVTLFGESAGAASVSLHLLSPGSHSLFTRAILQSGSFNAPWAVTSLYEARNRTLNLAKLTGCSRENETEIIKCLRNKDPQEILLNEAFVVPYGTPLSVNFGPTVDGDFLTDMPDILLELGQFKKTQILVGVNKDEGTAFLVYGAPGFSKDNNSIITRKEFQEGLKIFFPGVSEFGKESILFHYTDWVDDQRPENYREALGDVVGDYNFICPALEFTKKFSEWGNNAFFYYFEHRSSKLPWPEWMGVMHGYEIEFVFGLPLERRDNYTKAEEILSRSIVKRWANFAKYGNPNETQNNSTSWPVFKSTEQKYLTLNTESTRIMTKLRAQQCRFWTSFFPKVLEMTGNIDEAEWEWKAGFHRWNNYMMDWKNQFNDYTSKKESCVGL
Assay: Inhibition of human BChE using butyrylthiocholineiodide as substrate incubated for 10 mins by Ellman's method
Conditions: not given
`NC(=O)c1sc(-c2ccnc(NC(=O)C3CC3)c2)nc1OCC1CCN(Cc2ccccc2)CC1` showed an IC50 of 12700 nM.

System: not listed separately
Assay: Half life in Sprague-Dawley rat at 10 mg/kg, iv measured upto 24 hrs by LC-MS/MS analysis
Type: ADME, organism-based
Conditions: in vivo
Work on `NC(=O)c1sc(-c2ccnc(NC(=O)C3CC3)c2)nc1OCC1CCN(Cc2ccccc2)CC1` yielded a half-life of 6.7 h.

System: not listed separately
Assay: AUC (0 to infinity) in Sprague-Dawley rat at 10 mg/kg, po by LC-MS/MS analysis
Type: ADME, organism-based
Design: route oral, time infinity, dose 10 mg/kg
Conditions: in vivo
Compound `NC(=O)c1sc(-c2ccnc(NC(=O)C3CC3)c2)nc1OCC1CCN(Cc2ccccc2)CC1` has an AUC(0-inf) of 688 ng·h/mL.

System: not listed separately
Assay: AUC (0 to infinity) in Sprague-Dawley rat at 10 mg/kg, iv by LC-MS/MS analysis
Type: ADME, organism-based
Design: time infinity, route intravenous, dose 10 mg/kg
Conditions: in vivo
`NC(=O)c1sc(-c2ccnc(NC(=O)C3CC3)c2)nc1OCC1CCN(Cc2ccccc2)CC1` showed an AUC(0-inf) of 1820 ng·h/mL.

System: not listed separately
Assay: Volume of distribution in Sprague-Dawley rat at 10 mg/kg, po measured upto 24 hrs by LC-MS/MS analysis
Type: ADME, organism-based
Conditions: in vivo
`NC(=O)c1sc(-c2ccnc(NC(=O)C3CC3)c2)nc1OCC1CCN(Cc2ccccc2)CC1` gave a Vd of 93.6 L/kg.

System: not listed separately
Assay: Cmax in Sprague-Dawley rat at 10 mg/kg, po measured upto 24 hrs by LC-MS/MS analysis
Type: ADME, organism-based
Design: route oral, dose 10 mg/kg, time <=24
Conditions: in vivo
Work on `NC(=O)c1sc(-c2ccnc(NC(=O)C3CC3)c2)nc1OCC1CCN(Cc2ccccc2)CC1` yielded a Cmax of 67.3 ng/mL.

Molecular target: Glycogen synthase kinase-3 beta (Homo sapiens, UniProt P49841)
Sequence (P49841 whole entry): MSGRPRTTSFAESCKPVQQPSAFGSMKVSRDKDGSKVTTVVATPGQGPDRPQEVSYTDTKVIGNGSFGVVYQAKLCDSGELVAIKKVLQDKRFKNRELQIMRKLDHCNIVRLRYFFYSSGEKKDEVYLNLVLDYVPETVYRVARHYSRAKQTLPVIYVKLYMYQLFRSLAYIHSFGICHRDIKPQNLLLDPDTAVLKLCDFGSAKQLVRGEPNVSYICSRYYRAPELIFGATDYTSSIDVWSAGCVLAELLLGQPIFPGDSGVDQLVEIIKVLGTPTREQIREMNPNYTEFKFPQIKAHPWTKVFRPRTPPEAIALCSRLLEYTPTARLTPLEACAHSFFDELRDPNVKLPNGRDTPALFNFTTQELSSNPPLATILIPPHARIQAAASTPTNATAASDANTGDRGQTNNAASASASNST
Assay: biochemical
Conditions: not given
`NC(=O)c1sc(-c2ccnc(NC(=O)C3CC3)c2)nc1OCC1CCN(Cc2ccccc2)CC1` showed an IC50 of 94 nM.

System: not listed separately
Assay: Tmax in Sprague-Dawley rat at 10 mg/kg, iv measured upto 24 hrs by LC-MS/MS analysis
Type: ADME, organism-based
Conditions: in vivo
In the case of `NC(=O)c1sc(-c2ccnc(NC(=O)C3CC3)c2)nc1OCC1CCN(Cc2ccccc2)CC1`, the Tmax is reported as 6 min.

System: not listed separately
Assay: MRT (0 to t) in Sprague-Dawley rat at 10 mg/kg, iv measured upto 24 hrs by LC-MS/MS analysis
Type: ADME, organism-based
Conditions: in vivo
Work on `NC(=O)c1sc(-c2ccnc(NC(=O)C3CC3)c2)nc1OCC1CCN(Cc2ccccc2)CC1` yielded an MRT last at 24 h of 9.1 h.

System: not listed separately
Assay: Cmax in Sprague-Dawley rat at 10 mg/kg, iv measured upto 24 hrs by LC-MS/MS analysis
Type: ADME, organism-based
Design: route intravenous, dose 10 mg/kg, time <=24
Conditions: in vivo
In the case of `NC(=O)c1sc(-c2ccnc(NC(=O)C3CC3)c2)nc1OCC1CCN(Cc2ccccc2)CC1`, the Cmax is reported as 507 ng/mL.
